# Measured values reported in patent publication US9458102B2 (priority 2011, dated 2016).
# Read-outs that look alike come from different tables or passages of the source.
# What was measured:
# proteinase K = target: T1, proteinase K (Parengyodontium album, UniProt P06873); assay: In vitro hydrolysis by proteinase K; format: in vitro ADME, Engyodontium album
# T1 construct: purchased Sigma
# Description: Hydrolysis products of 4-nitrophenyl acetate and BSA were detected as positive controls.
# (§1) All enzymatic assays were performed with 50 μM compound in 0.1M phosphate buffer, pH 7.4, at 37° C. with stirring, unless otherwise noted. Butyrylcholinesterase stock solutions from human serum (Sigma, St. Louis, Mo.) were prepared at 100 U/mL in 0.1 M phosphate buffer, pH 7.4, and stored at −20° C. until use. Hydrolysis was monitored on an 8452A diode array spectrophotometer (Hewlett-Packard). Product peak wavelength absorption was immediately monitored upon addition of compound. Absorbances for complete hydrolysis were determined when there were no further detectable changes. […] All hydrolysis assays were performed in triplicate, and final rate constants are expressed as the mean±SD of the three individually determined rate constants. In some experiments with compound 1, samples were taken at the beginning and end of the assay to verify the hydrolysis product and the completion of the reaction by HPLC. These samples were compared to compounds 1 and 3 on a C18 column eluted with 0.1% TFA in water/acetonitrile. Activity of chymotrypsin (bovine, Worthington Biochemical Co., 190 μg/mL) was verified with 90 μM 4-nitrophenyl acetate in 0.1 M HEPES solution, pH 6.5, at 37° C. with stirring. Hydrolysis product was monitored at 404 nm for 10 min. Activity of proteinase K (from Engyodontium album, Sigma, 165 μg/mL) was verified with 16.5 mg/mL bovine serum albumin in 0.1 M phosphate buffer, pH 7.4, at 37° C. Samples were taken at time point increments up to 2 hours when the reaction reached completion. Samples were analyzed with 12% SDS-PAGE, stained with 0.1% Coomassie Blue.
# [1] = target: T2, Butyrylcholinesterase purified from human blood serum (Homo sapiens, UniProt P06276); assay: In vitro hydrolysis by serum cholinesterase (butyrylcholinesterase); format: in vitro ADME; settings: 50 μM compound, 0.1M phosphate buffer pH 7.4, 37° C.; mean±SD of triplicate
# T2 construct: Butyrylcholinesterase purified from human blood serum; purchased Sigma; host or cells: purified from human blood serum
# T2 sequence (P06276 29-602): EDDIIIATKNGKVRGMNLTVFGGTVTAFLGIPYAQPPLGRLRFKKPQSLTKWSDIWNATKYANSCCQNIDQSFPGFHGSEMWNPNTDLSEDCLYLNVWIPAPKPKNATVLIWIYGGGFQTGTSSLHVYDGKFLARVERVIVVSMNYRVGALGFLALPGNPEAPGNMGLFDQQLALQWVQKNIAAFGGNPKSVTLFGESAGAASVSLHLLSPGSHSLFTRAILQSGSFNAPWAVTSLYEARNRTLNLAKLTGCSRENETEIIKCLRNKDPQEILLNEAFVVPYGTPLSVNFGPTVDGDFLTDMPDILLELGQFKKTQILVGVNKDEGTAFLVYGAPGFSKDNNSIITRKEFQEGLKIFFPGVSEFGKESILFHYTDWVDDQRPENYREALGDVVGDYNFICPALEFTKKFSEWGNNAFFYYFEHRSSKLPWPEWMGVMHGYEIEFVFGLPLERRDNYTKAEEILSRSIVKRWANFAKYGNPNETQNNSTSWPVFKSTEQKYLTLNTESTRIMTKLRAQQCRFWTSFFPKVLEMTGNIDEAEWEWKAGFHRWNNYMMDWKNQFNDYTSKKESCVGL
# Description: Compound 1 is rapidly hydrolyzed by butyrylcholinesterase in the bloodstream. Butyrylcholinesterase purified from human blood serum was used to test the resistance of the disclosed compounds to hydrolysis.
# as §1
# chymotrypsin = target: T3, chymotrypsin (Bos taurus, UniProt P00766); assay: In vitro hydrolysis by chymotrypsin; format: in vitro ADME
# T3 construct: purchased Worthington Biochemical Co
# Description: as §1, with “In some experiments with compound 1, samples were taken at the beginning and end of the assay to verify the hydrolysis product and the completion of the reaction by HPLC. These samples were compared to compounds 1 and 3 on a C18 column eluted with 0.1% TFA in water/acetonitrile.” left out
# [2] = target: heteromeric rod CNG channels consisting of CNGA1 and CNGB1 subunits (Bos taurus, UniProt Q00194+Q28181); assay: biochemical; format: cell-based; settings: 2 mM cGMP; for Kd: Table 1, mean±SD, not corrected for ion accumulation
# Sequence of heteromeric rod CNG channels consisting of CNGA1 and CNGB1 subunits (Q00194 whole entry): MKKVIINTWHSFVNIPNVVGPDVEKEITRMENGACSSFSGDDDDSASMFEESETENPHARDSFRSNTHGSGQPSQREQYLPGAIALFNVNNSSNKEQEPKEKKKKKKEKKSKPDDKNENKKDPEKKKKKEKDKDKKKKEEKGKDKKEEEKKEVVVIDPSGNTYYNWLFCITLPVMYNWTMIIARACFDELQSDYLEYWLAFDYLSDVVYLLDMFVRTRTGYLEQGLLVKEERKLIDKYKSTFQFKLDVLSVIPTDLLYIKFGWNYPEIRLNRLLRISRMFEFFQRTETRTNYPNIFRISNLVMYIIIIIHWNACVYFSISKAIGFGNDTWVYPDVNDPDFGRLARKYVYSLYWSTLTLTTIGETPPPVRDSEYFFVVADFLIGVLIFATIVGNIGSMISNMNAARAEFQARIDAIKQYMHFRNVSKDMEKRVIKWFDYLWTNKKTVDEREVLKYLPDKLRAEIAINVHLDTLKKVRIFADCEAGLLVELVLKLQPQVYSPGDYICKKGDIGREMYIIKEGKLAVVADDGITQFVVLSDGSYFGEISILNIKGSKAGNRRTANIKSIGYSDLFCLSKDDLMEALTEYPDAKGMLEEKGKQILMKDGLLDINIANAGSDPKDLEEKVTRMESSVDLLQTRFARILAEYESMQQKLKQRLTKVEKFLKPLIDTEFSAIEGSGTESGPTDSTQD
# Sequence of heteromeric rod CNG channels consisting of CNGA1 and CNGB1 subunits (Q28181 whole entry): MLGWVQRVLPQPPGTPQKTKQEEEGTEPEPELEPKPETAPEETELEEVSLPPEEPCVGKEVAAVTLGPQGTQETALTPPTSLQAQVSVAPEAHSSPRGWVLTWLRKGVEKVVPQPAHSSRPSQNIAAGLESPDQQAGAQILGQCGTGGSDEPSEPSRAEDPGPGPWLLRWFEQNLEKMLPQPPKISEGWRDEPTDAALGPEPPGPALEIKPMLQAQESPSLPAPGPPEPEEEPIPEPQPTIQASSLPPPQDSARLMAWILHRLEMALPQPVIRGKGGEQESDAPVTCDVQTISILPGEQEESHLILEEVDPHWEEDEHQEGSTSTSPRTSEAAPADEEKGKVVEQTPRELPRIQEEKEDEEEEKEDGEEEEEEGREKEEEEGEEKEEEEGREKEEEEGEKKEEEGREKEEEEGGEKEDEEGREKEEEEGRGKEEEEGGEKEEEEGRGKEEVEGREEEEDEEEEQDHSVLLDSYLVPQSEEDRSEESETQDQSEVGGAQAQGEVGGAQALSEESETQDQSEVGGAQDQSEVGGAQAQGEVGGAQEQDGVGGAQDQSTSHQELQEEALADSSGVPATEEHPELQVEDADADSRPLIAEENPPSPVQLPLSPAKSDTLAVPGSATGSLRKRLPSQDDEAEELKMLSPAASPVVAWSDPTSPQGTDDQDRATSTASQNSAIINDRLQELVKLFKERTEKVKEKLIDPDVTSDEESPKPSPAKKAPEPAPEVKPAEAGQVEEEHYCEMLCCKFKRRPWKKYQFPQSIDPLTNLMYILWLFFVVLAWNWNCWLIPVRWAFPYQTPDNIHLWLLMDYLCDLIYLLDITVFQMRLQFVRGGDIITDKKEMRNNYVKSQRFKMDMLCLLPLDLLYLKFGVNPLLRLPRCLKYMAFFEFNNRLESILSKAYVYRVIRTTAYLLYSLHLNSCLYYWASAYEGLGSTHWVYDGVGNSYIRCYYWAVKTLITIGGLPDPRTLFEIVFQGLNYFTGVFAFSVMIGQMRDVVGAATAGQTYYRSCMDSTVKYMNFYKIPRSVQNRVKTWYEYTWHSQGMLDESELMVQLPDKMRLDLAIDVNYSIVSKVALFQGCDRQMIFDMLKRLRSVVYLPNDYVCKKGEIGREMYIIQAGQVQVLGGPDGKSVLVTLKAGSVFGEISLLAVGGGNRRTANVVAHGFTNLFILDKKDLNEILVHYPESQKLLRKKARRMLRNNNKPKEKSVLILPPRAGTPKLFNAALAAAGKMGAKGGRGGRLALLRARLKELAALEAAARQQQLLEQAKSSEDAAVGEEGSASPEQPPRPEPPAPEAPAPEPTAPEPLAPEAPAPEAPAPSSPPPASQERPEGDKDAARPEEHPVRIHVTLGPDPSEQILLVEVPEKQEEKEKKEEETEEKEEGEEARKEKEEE
# Description: Currents were elicited by a voltage step protocol from 0 to −50 to +50 mV (See FIG. 1) in the presence of 2 mM cGMP or 2 mM cGMP and compound (5 μM). Time scale is shown in the lower left-hand corner of the panel and FIG. 1, and the zero current level is indicated by the dotted line.
# The solid line indicates the fit of the equation for block at a single binding site.
# Time scale is shown in the lower left-hand corner of the panel and FIG. 1, and the zero current level is indicated by the dotted line. […] Solid line indicates the fit of the equation for block at a single binding site.
# The effectiveness of retinal rod CNG channel current block by the disclosed compounds was tested in Xenopus oocyte preparations. Excised, inside-out patches pulled from oocytes expressed heteromeric rod CNG channels consisting of CNGA1 and CNGB1 subunits. […] CNG channel currents were elicited by a voltage step protocol to −50 and +50 mV (FIG. 1). The apparent KD value at each membrane potential was estimated first by determining I+B and I−B at steady state, where I+B is the current in the presence of blocker and I−B is current in the absence of blocker, for different blocker concentrations ([B]).
# Ovaries were surgically removed from adult Xenopus laevis females (Xenopus Express; Brooksville, Fla.) anesthetized with ice-cold 0.1% tricaine and 0.1% NaHCO3 solution. Oocytes were chemically released from ovarian follicles in Ca^2+-free Barth's solution (88 mM NaCl, 1 mM KCl, 2.4 mM NaHCO3, 0.82 mM MgSO4, 7.5 mM Tris, 2.5 mM sodium pyruvate, 100 U/mL penicillin, and 100 μg/mL streptomycin, pH 7.4) containing 0.1 U/mL Liberase Blendzymes (Roche, Indianapolis, Ind.). Stages IV and V oocytes were visually sorted and stored in ND-96 (96 mM NaCl, 2 mM KCl, 1.8 mM CaCl2, 1 mM MgCl2, 5 mM HEPES, 2.5 mM sodium pyruvate, 100 U/mL penicillin, and 100 μg/mL streptomycin, pH 7.4) at 16° C. Oocytes were co-injected the following day with 33 ng of CNGA1 and 67 ng of CNGB1 cRNA […] synthesized from linearized pGEM-HE expression vectors containing the channel subunit cDNA sequence (Strassmaier T & Karpen J, J Med Chem 50, 4186-4194, (2007), incorporated by reference herein) using T7 mMESSAGE mMACHINE® (Ambion, Austin, Tex.). Injected oocytes were incubated at 18° C. the first day and 16° C. for the remaining days.
# Recordings from inside-out excised patches were made 3-7 days after oocyte injection on an Axopatch 1D® amplifier (Axon Instruments, Foster City, Calif.). Briefly, oocyte vitelline membranes were removed in solution containing 200 mM K aspartate, 20 mM KCl, 1 mM MgCl2, 10 mM EGTA, 10 mM HEPES, pH 7.4. Oocytes were placed in a recording chamber in a solution containing 130 mM NaCl, 2 mM HEPES, 0.02 mM EDTA, 1 mM EGTA, pH 7.6, and borosilicate glass electrodes (1-3 MΩ) were filled with identical solution. Macroscopic currents were filtered at 1 kHz and sampled at 2 kHz using pCLAMP 8.0® software (Axon Instruments). Channels were either fully activated with 2 mM or partially activated with 50 and 100 μM cGMP. […] Glass syringes and Teflon tubing were used to minimize the binding of compounds to surfaces; concentrations passing through the perfusion system were verified by absorbance.
# T1 sequence (P06873 106-384): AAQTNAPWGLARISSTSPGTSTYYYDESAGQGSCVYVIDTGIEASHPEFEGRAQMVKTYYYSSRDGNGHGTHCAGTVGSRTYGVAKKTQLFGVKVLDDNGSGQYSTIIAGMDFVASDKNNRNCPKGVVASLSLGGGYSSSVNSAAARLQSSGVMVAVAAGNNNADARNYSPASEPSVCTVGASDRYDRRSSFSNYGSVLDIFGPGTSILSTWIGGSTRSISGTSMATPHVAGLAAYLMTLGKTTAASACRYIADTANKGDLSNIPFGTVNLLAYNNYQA
SMILES,hydrolysis products with proteinase K (proteinase K),Hydrolysis rate [1] [nmol/min/mg],hydrolysis products with chymotrypsin (chymotrypsin),"Kd ([2]; +50 mV, read-out: KD(+50)) [µM]","Kd ([2]; −50 mV, read-out: KD(−50)) [µM]",voltage dependence of block ([2]; +50 vs −50 mV)
"CCCCNc1ccc(C(=O)NCCN(C)C)cc1 [Compound 6, 4-(Butylamino)-N-(2-(dimethylamino)ethyl)benzamide]",not able to generate any detectable hydrolysis products,8.4 ± 3.5,not able to generate any detectable hydrolysis products,4.4 ± 2,28.6 ± 13.1,–
"CCCCCCCCNc1ccc(C(=O)NCCN(C)C)cc1 [Compound 7, 4-(Octylamino)-N-(2-(dimethylamino)ethyl)benzamide]",not able to generate any detectable hydrolysis products,1.2 ± 0.5,not able to generate any detectable hydrolysis products,–,–,"appreciably less voltage dependent than compound 1, 6, and 8"
